Patent US20150284689A1, “STRATEGY FOR ENGINEERING VARIOUS 3D TISSUES, ORGANOIDS AND VASCULATURE” (THE REGENTS OF THE UNIVERSITY OF CALIFORNIA, priority 2012, published 2015)

How the values were obtained:
[1] = tested on: isolated ureteric bud, Wolffian duct bud; test: isolated ureteric bud / Wolffian duct culture in biocompatible matrix, branching morphogenesis; type: cell-based; settings: isolated UB/WD separated from MM, in Matrigel/collagen gel
Excerpt: This isolated cell culture system can serve as a powerful assay system since it directly assesses the effect of soluble factors on cell morphogenesis and tubulogenesis.
As discussed herein, the disclosure provides methods and compositions whereby isolated budding epethelia (e.g., UBs, WDs, or UBs and WDs) can be co-cultured and stimulated by extrinsic factors to induce branching. These branching buds can then be combined with a tissue specific mesenchymal cell population to develop a desired tissue (e.g., combined with metanephric mesenchyme to produce kidney tissue). For example, whole isolated intact UB, WD, or UB and ND (cleanly separated from surrounding MM) can be induced to undergo branching morphogenesis in vitro in a manner similar to UB, WD, or UB and WD culture. Suspension of the isolated UBs, WDs, or UBs and WDs within, or on, a natural or artificial biocompatible substrate (e.g., Matrigel/collagen gel) and when exposed to a mixture of mesenchyme-cultured media augmented with GDNF, results in the isolated unbranched UB, WD, or UB and WD rapidly forming a polarized, extensively branched structure with an internal lumen. […] This modulation is typically branch-promoting, elongation promoting, or branch-inhibiting.
The culture system and methods of the disclosure provide toe ability to propagate the isolated UB, WD, or UB and WD in vitro through several generations. For example, isolated stem cells, UB, WD, or any combination thereof are cultured in vitro and induced to undergo branching morphogenesis in the presence of BSN-CM or pleiotrophin and GDNF or pleiotrphin, FGF1, and GDNF. After 8 days, the cultured bud is subdivided into approximate 3rds and re-suspended within a suitable biocompatible matrix (matrigel/collagen gel). This 2nd generation bud is further subdivided after another 8 days of culture and the 3rd generation bud is cultured for 8 days (thus yielding at least 9 subdivided buds from one progenitor bud) (e.g., see FIG. 9A-B). These subsequent clonal generations of cultured UB, WD, or UB and WD retain the ability of the progenitor bud to induce mesenchyme upon in vitro recombination. The buds also retained the capacity to form cohesive conduits with the mesenchymally-derived tubules that they induced. Thus, the disclosure provides the ability to develop and propagate a clonal, expanded, and long-lived colony of ureteric bud, Wolffian duct bud, or ureteric and Wolffian duct buds, derived from a single progenitor bud that retains the properties of the progenitor. Using similar techniques with the MM, it is possible to develop colonies of mesenchyme derived from a single progenitor mesenchyme that can then be recombined with a propagated UB, WD, or UB and WD.

[2] = tested on: cultured mesenchyme; test: cultured isolated mesenchyme, induction/differentiation; type: cell-based; settings: isolated mesenchyme cultured in vitro
[3] = tested on: MDCK and mIMCD cells; settings: three-dimensional cultures of MDCK and mIMCD cells; cited from earlier work

| Molecule | effect on branching morphogenesis of isolated UB, WD [1] | other results |
| --- | --- | --- |
| Endostatin | selectively inhibits branching of the UB, WD, or UB and WD | – |
| FGF1: fibroblast growth factor-1 | induced the formation of elongated stern cells, UB, ND, or any combination thereof branching stalks | – |
| FGF2: growth factor present in UB/WD conditioned media | – | effect on cultured mesenchyme (mesenchymal-to-epithelial transformation, survival, differentiation) [2]: appear to promote survival but not differentiation of mesenchyme |
| HGF: Hepatocyte growth factor | – | formation of branching tubular structures with lumens [3]: induce the formation of branching tubular structures with lumens |
| LIF: leukemia-inhibitory factor, isolated from UB, WD conditioned media | – | effect on cultured mesenchyme (mesenchymal-to-epithelial transformation, survival, differentiation) [2]: induce mesenchymal-to-epithelial transformation of cultured mesenchyme |
| FGF7: fibroblast growth factor-7 (protein, UniProt P21781 32-194, looked up) Fibroblast growth factor 7: CNDMTPEQMATNVNCSSPERHTRSYDYMEGGDIRVRRLFCRTQWYLRIDKRGKVKGTQEMKNNYNIMEIRTVAVGIVAIKGVESEFYLAMNKEGKLYAKKECNEDCNFKELILENHYNTYASAKWTHNGGEMFVALNQKGIPVRGKKTKKEQKTAHFLPMAIT | induced amorphous buds displaying nonselective proliferation with little distinction between stalks and ampullae | – |
| pleiotrophin: polypeptide in active morphogenetic fraction of BSN-CM; fibroblast proliferative and neurite outgrowth-promoting factor (protein, UniProt P21246 33-168, looked up) Pleiotrophin: GKKEKPEKKVKKSDCGEWQWSVCVPTSGDCGLGTREGTRTGAECKQTMKTQRCKIPCNWKKQFGAECKYQFQAWGECDLNTALKTRTGSLKRALHNAECQKTVTISKPCGKLTKPKPQAESKKKKKEGKKQEKMLD | induces branching morphogenesis of the whole ureteric bud, Wolffian duct bud, or ureteric and Wolffian duct bud | – |
